From patent US20030162763A1, “Novel cephalosporin compounds and process for preparing the same” (priority 2000, published 2003)
In brackets after ≈: the same amount, converted by molar mass. Read-outs that look alike come from different tables or passages of the source.

What was measured:
Test in all cases: Minimum Inhibitory Concentration (MIC), agar dilution
E. faecalis L239 = assay type: cell-based; conditions: Enterococcus faecalis, read-out: Sensitivity test result (MIC), E. faecalis L239
Experimental: (§1) The effectiveness of the compound according to the present invention was determined by obtaining Minimum Inhibitory Concentration (MIC) of the compounds prepared by the above examples (I-1 to I-6) and vancomycin, which is the known compound having a potent activity against gram-positive strains, as the control drug against the standard strains. Specifically, Minimum Inhibitory Concentration was obtained by diluting the test material with a double dilution method, dispersing them in Mueller-Hinton agar medium, inoculating each of the test strain having 10^7 cfu (colony forming unit) per ml in an amount of 2 μl to the medium and then incubating them at 37° C. for 20 hours. From the result of Minimum Inhibitory Concentration test, it can be seen that the compound according to the present invention has a good activity against major pathogenic microorganisms, which cause hospital infection, including MRSA strains.

S. epidermidis R005 = assay type: cell-based; conditions: for MIC: Staphylococcus epidermidis, read-out: Sensitivity test result (MIC), S. epidermidis R005
Experimental: as §1

[1] = test system: Staphylococcus aureus giorgio; assay type: cell-based; conditions: for MIC: Staphylococcus aureus, read-out: Sensitivity test result (MIC), Staphylococcus aureus giorgio
Experimental: as §1

S. aureus 77 = assay type: cell-based, Staphylococcus aureus; conditions: for MIC: read-out: Sensitivity test result (MIC), S. aureus 77
Experimental: as §1

S. aureus 241 = assay type: cell-based, Staphylococcus aureus; conditions: read-out: Sensitivity test result (MIC), S. aureus 241
Experimental: as §1

E. faecalis EFS004 = assay type: cell-based; conditions: Enterococcus faecalis, read-out: Sensitivity test result (MIC), E. faecalis EFS004
Experimental: as §1

[2] = test system: Staphylococcus aureus K311; assay type: cell-based; conditions: read-out: Sensitivity test result (MIC), Staphylococcus aureus K311
Experimental: as §1

[3] = L239, Table 1, Mueller-Hinton agar, 37° C., 20 hours
[4] = R005, Table 1, Mueller-Hinton agar, 37° C., 20 hours
[5] = Table 1, Mueller-Hinton agar, 37° C., 20 hours
[6] = Staphylococcus aureus, 77, Table 1, Mueller-Hinton agar, 37° C., 20 hours
[7] = Staphylococcus aureus, 241, Table 1, Mueller-Hinton agar, 37° C., 20 hours
[8] = EFS004, Table 2, Mueller-Hinton agar, 37° C., 20 hours
[9] = R005, Table 2, Mueller-Hinton agar, 37° C., 20 hours
[10] = K311, Table 2, Mueller-Hinton agar, 37° C., 20 hours
[11] = Table 2, Mueller-Hinton agar, 37° C., 20 hours
[12] = Staphylococcus aureus, 77, Table 2, Mueller-Hinton agar, 37° C., 20 hours

Row | Structure (SMILES) | MIC (E. faecalis L239; [3]) | MIC (S. epidermidis R005; [4]) | MIC [1, 5] | MIC (S. aureus 77; [6]) | MIC (S. aureus 241; [7]) | other results
1 | Nc1cc(SC2=C(C(=O)O)N3C(=O)[C@@H](NC(=O)CSc4cc(Cl)ccc4Cl)[C@H]3SC2)nc(N)n1 [Compound I-1, (6R,7R)-3-[(2,6-diamino-4-pyrimidinyl)sulfanyl]-7-({2-[(2,5-dichlorophenyl)-sulfanyl]acetyl}amino)-8-oxo-5-thia-1-azabicyclo[4.2.0]oct-2-ene-2-carboxylic acid] | 2 µg/mL (≈ 3.57 µM) | 0.25 µg/mL (≈ 0.447 µM) | < 0.008 µg/mL | 0.25 µg/mL (≈ 0.447 µM) | 2 µg/mL (≈ 3.57 µM) | 
2 | Nc1nc(O)cc(SC2=C(C(=O)O)N3C(=O)[C@@H](NC(=O)CSc4cc(Cl)ccc4Cl)[C@H]3SC2)n1 [Compound I-2, (6R,7R)-3-[(2-amino-6-hydroxy-4-pyrimidinyl)sulfanyl]-7-({2-[(2,5-dichloro-phenyl)sulfanyl]acetyl}amino)-8-oxo-5-thia-1-azabicyclo[4.2.0]oct-2-ene-2-carboxylic acid] | 2 µg/mL (≈ 3.57 µM) | 0.5 µg/mL (≈ 0.892 µM) | 0.031 µg/mL (≈ 0.0553 µM) | 0.5 µg/mL (≈ 0.892 µM) | 4 µg/mL (≈ 7.14 µM) | 
3 | Nc1nc(O)cc(SC2=C(C(=O)O)N3C(=O)[C@@H](NC(=O)CSc4cc(Cl)nc(Cl)c4)[C@H]3SC2)n1 [Compound I-6, (6R,7R)-3-[(2-amino-6-hydroxy-4-pyrimidinyl)sulfanyl]-7-({2-[(2,6-dichloro-4-pyridinyl)sulfanyl]acetyl}amino)-8-oxo-5-thia-1-azabicyclo[4.2.0]oct-2-ene-2-carboxylic acid] |  |  |  |  |  | MIC (E. faecalis EFS004; [8]): 2 µg/mL (≈ 3.56 µM); MIC (S. epidermidis R005; [9]): 0.5 µg/mL (≈ 0.891 µM); MIC [2, 10]: 1 µg/mL (≈ 1.78 µM); MIC [1, 11]: 0.063 µg/mL (≈ 0.112 µM); MIC (S. aureus 77; [12]): 2 µg/mL (≈ 3.56 µM)
4 | CN[C@H](CC(C)C)C(=O)N[C@H]1C(=O)N[C@@H](CC(N)=O)C(=O)N[C@H]2C(=O)N[C@H]3C(=O)N[C@H](C(=O)N[C@H](C(=O)O)c4cc(O)cc(O)c4-c4cc3ccc4O)[C@H](O)c3ccc(c(Cl)c3)Oc3cc2cc(c3O[C@@H]2O[C@H](CO)[C@@H](O)[C@H](O)[C@H]2O[C@H]2C[C@](C)(N)[C@H](O)[C@H](C)O2)Oc2ccc(cc2Cl)[C@H]1O [Vancomycin, vancomycin, reference compound] |  |  |  |  |  | MIC (E. faecalis L239; L239, 20 h): 2 µg/mL (≈ 1.38 µM); MIC (E. faecalis EFS004; EFS004, 20 h): 1 µg/mL (≈ 0.69 µM); MIC (S. epidermidis R005; R005, 20 h): 1 µg/mL (≈ 0.69 µM); Sensitivity test result (MIC), S. epidermidis R005 (S. epidermidis R005; [11]): 1 µg/mL; MIC ([2]; K311, 20 h): 2 µg/mL (≈ 1.38 µM); MIC ([1]; 20 h): 1 µg/mL (≈ 0.69 µM); Sensitivity test result (MIC), Staphylococcus aureus giorgio [1, 11]: 1 µg/mL; MIC (S. aureus 77; Staphylococcus aureus, 77, 20 h): 1 µg/mL (≈ 0.69 µM); Sensitivity test result (MIC), S. aureus 77 (S. aureus 77; [11]): 1 µg/mL; MIC (S. aureus 241; Staphylococcus aureus, 241, 20 h): 2 µg/mL (≈ 1.38 µM)
5 | Nc1cc(SC2=C(C(=O)O)N3C(=O)[C@@H](NC(=O)CSc4cc(Cl)nc(Cl)c4)[C@H]3SC2)nc(N)n1 [Compound I-5, (6R,7R)-3-[(2,6-diamino-4-pyrimidinyl)sulfanyl]-7-({2-[(2,6-dichloro-4-pyridinyl)sulfanyl]acetyl}amino)-8-oxo-5-thia-1-azabicyclo[4.2.0]oct-2-ene-2-carboxylic acid] |  |  |  |  |  | MIC (E. faecalis EFS004; [8]): 4 µg/mL (≈ 7.14 µM); MIC (S. epidermidis R005; [9]): 1 µg/mL (≈ 1.78 µM); MIC [2, 10]: 1 µg/mL (≈ 1.78 µM); MIC [1, 11]: 0.063 µg/mL (≈ 0.112 µM); MIC (S. aureus 77; [12]): 1 µg/mL (≈ 1.78 µM)

Now from value to compound, other results behind:

Row | MIC (E. faecalis L239; [3]) | MIC (S. epidermidis R005; [4]) | MIC [1, 5] | MIC (S. aureus 77; [6]) | MIC (S. aureus 241; [7]) | Structure (SMILES) | other results
6 | 2 µg/mL (≈ 3.57 µM) | 0.5 µg/mL (≈ 0.892 µM) | 0.016 µg/mL (≈ 0.0285 µM) | 1 µg/mL (≈ 1.78 µM) | 4 µg/mL (≈ 7.14 µM) | Nc1cc(SC2=C(C(=O)O)N3C(=O)[C@@H](NC(=O)CSc4c(Cl)cccc4Cl)[C@H]3SC2)nc(O)n1 [Compound I-3, (6R,7R)-3-[(6-amino-2-hydroxy-4-pyrimidinyl)sulfanyl]-7-({2-[(2,6-dichloro-phenyl)sulfanyl]acetyl}amino)-8-oxo-5-thia-1-azabicyclo[4.2.0]oct-2-ene-2-carboxylic acid] | 
7 | > 64 µg/mL | 32 µg/mL (≈ 72.2 µM) | 4 µg/mL (≈ 9.02 µM) | 32 µg/mL (≈ 72.2 µM) | > 64 µg/mL | Nc1ccnc(SC2=C(C(=O)O)N3C(=O)[C@@H](NC(=O)Cc4ccccc4)[C@H]3SC2)n1 [Compound I-4, (6R,7R)-3-[(4-amino-2-pyrimidinyl)sulfanyl]-8-oxo-7-[(phenylacetyl)amino]-5-thia-1-azabicyclo[4.2.0]oct-2-ene-2-carboxylic acid] | 
